The values that follow are results of earlier work, collected in patent US10799449B2, “Medicinal delivery system and related methods” (JSRNTI, LLC, priority 2006, dated 2020).

The conditions of data set [1]: in water.

On to `OC[C@@H](O)[C@@H](O[C@H]1O[C@H](CO)[C@@H](O)[C@H](O)[C@H]1O)[C@H](O)[C@@H](O)CO` [Maltitol], for which, in data set [1], the Solubility is reported as 71 grams/100 grams water.

In the case of `OC[C@@H](O)[C@H](O)[C@@H](O)CO` [Xylitol], the Solubility in data set [1] is given as 70 grams/100 grams water.

For `OC[C@@H](O)[C@@H](O)[C@H](O)[C@H](O)CO` [Mannitol], the Solubility in data set [1] was 23 grams/100 grams water.

As for `OC[C@@H](O)[C@@H](O)[C@H](O)[C@@H](O)CO` [Sorbitol], the Solubility in data set [1] was 75 grams/100 grams water.

As to Isomalt, the Solubility in data set [1] is on record as 38 grams/100 grams water.

As to `CN1CCCC1c1cccnc1` (stereo not drawn) [Nicotine], where the note is “buffered saliva pH of 9.0”, the “Available nicotine in an un-ionized state” value is reported as “approximately 91%”. Where the note is “weak base”, the pKa result is given as “approximately 8.0”. For the setting “without buffer, normal saliva pH of 6.5”, the “Available nicotine in the un-ionized form” value is recorded as 3%.

For `OC[C@@H](O)[C@@H](O[C@@H]1O[C@H](CO)[C@H](O)[C@H](O)[C@H]1O)[C@H](O)[C@@H](O)CO` [Lactitol], the Solubility in data set [1] is given as 55 grams/100 grams water.
